Counter-ions that a name gives are not always drawn. Like-named read-outs stand apart in the source and are kept apart here.
What was measured:
Assay in all cases: microbe, parasite or virus in culture
Type in all cases: cell-based
vaccinia virus = conditions: read-out: Avg Activity (VV)
La Crosse virus (LACV) = conditions: read-out: Avg Activity (LACV)
Chlamydophila caviae = conditions: read-out: Avg Activity (C. Caviae)

COc1cc(NC(=S)NC(=O)C2CCCCC2)ccc1NC(=O)c1ccccc1Cl [Compound 26, 2-chloro-N-[4-(cyclohexanecarbonyl-carbamothioylamino)-2-methoxy-phenyl]benzamide]
EC50 (vaccinia virus; Orthopoxvirus vaccinia): 1000 to 10000 nM
EC50 (La Crosse virus (LACV); La Crosse virus, Vero): > 25000 nM
EC50 (Chlamydophila caviae; Chlamydia caviae, Vero): 10000 to 25000 nM

Cc1c(Cl)cccc1NC(=S)NC(=O)c1ccc(C(C)(C)C)cc1 [Compound 47, 4-tert-butyl-N-[(3-chloro-2-methyl-phenyl)-carbamothioyl]benzamide]
EC50 (vaccinia virus; Orthopoxvirus vaccinia): 1000 to 10000 nM
EC50 (La Crosse virus (LACV); La Crosse virus, Vero): < 1000 nM
EC50 (Chlamydophila caviae; Chlamydia caviae, Vero): < 1000 nM

Cc1cccc(C)c1NC(=S)NC(=O)c1ccc(C(C)(C)C)cc1 [Compound 71, 4-tert-butyl-N-[(2,6-dimethylphenyl)-carbamothioyl]benzamide]
EC50 (vaccinia virus; Orthopoxvirus vaccinia): 10000 to 25000 nM
EC50 (La Crosse virus (LACV); La Crosse virus, Vero): > 25000 nM
EC50 (Chlamydophila caviae; Chlamydia caviae, Vero): < 1000 nM

CC(C)(C)c1ccc(C(=O)NC(=S)Nc2ccccc2[N+](=O)[O-])cc1 [Compound 58, 4-tert-butyl-N-[(2-nitrophenyl)carbamothioyl]-benzamide]
EC50 (vaccinia virus; Orthopoxvirus vaccinia): 1000 to 10000 nM
EC50 (La Crosse virus (LACV); La Crosse virus, Vero): 1000 to 10000 nM
EC50 (Chlamydophila caviae; Chlamydia caviae, Vero): < 1000 nM

COc1cc(NC(=S)NC(=N)c2ccc(C(C)(C)C)cc2)ccc1NC(=O)c1ccccc1Cl [Compound 23, N-[4-[(4-tert-butylbenzene-carboximidoyl)-carbamothioylamino]-2-methoxy-phenyl]-2-chloro-benzamide]
EC50 (vaccinia virus; Orthopoxvirus vaccinia): 1000 to 10000 nM
EC50 (La Crosse virus (LACV); La Crosse virus, Vero): 1000 to 10000 nM
EC50 (Chlamydophila caviae; Chlamydia caviae, Vero): < 1000 nM

COc1cc(NC(=S)NC(=O)c2ccc(C(C)(C)C)cc2)ccc1NC(=S)c1ccccc1Cl [Compound 8, 4-tert-butyl-N-[[4-[(2-chlorobenzene-carbothioyl)amino]-3-methoxy-phenyl]-carbamothioyl]benzamide]
EC50 (vaccinia virus; Orthopoxvirus vaccinia): < 1000 nM
EC50 (La Crosse virus (LACV); La Crosse virus, Vero): < 1000 nM
EC50 (Chlamydophila caviae; Chlamydia caviae, Vero): < 1000 nM

CC(C)(C)c1ccc(C(=O)NC(=S)Nc2cc(C(F)(F)F)ccc2Cl)cc1 [Compound 44, 4-tert-butyl-N-[[2-chloro-5-(trifluoromethyl)phenyl]-carbamothioyl]benzamide]
EC50 (vaccinia virus; Orthopoxvirus vaccinia): < 1000 nM
EC50 (La Crosse virus (LACV); La Crosse virus, Vero): < 1000 nM
EC50 (Chlamydophila caviae; Chlamydia caviae, Vero): < 1000 nM

N-[3-[(4-tert-butylbenzoyl)-carbamothioylamino]phenyl]-2-chloro-benzamide [Compound 74]
EC50 (vaccinia virus): > 25000 nM
EC50 (La Crosse virus (LACV)): 1000 to 10000 nM
EC50 (Chlamydophila caviae): > 25000 nM

CN(C)c1ccc(NC(=S)NC(=O)c2ccc(C(C)(C)C)cc2)c(Cl)c1 [Compound 22, 4-tert-butyl-N-[[2-chloro-4-(dimethylamino)phenyl]-carbamothioyl]benzamide hydrochloride]
EC50 (vaccinia virus; Orthopoxvirus vaccinia): 1000 to 10000 nM
EC50 (La Crosse virus (LACV); La Crosse virus, Vero): 1000 to 10000 nM
EC50 (Chlamydophila caviae; Chlamydia caviae, Vero): < 1000 nM

Cc1ccc(NC(=S)NC(=O)c2ccc(C(C)(C)C)cc2)cc1 [Compound 59, 4-tert-butyl-N-(p-tolylcarbamothioyl)-benzamide]
EC50 (vaccinia virus; Orthopoxvirus vaccinia): 1000 to 10000 nM
EC50 (La Crosse virus (LACV); La Crosse virus, Vero): 1000 to 10000 nM
EC50 (Chlamydophila caviae; Chlamydia caviae, Vero): < 1000 nM

CC(C)(C)c1ccc(C(=O)NC(=S)Nc2ccccc2F)cc1 [Compound 61, 4-tert-butyl-N-[(2-fluorophenyl)carbamothioyl]-benzamide]
EC50 (vaccinia virus; Orthopoxvirus vaccinia): 1000 to 10000 nM
EC50 (La Crosse virus (LACV); La Crosse virus, Vero): 1000 to 10000 nM
EC50 (Chlamydophila caviae; Chlamydia caviae, Vero): 1000 to 10000 nM

CC(C)(C)c1ccc(C(=O)NC(=S)Nc2ccc(NC(=O)c3ccccc3)cc2Cl)cc1 [Compound 7, N-[(4-benzamido-2-chloro-phenyl)carbamothioyl]-4-tert-butyl-benzamide]
EC50 (vaccinia virus; Orthopoxvirus vaccinia): < 1000 nM
EC50 (La Crosse virus (LACV); La Crosse virus, Vero): < 1000 nM
EC50 (Chlamydophila caviae; Chlamydia caviae, Vero): < 1000 nM

CC(C)(C)c1ccc(C(=O)NC(=S)Nc2ccc(NC(=O)c3ccccc3Cl)c(O)c2)cc1 [Compound 2, N-[4-[(4-tert-butylbenzoyl)-carbamothioylamino]-2-hydroxy-phenyl]-2-chloro-benzamide]
EC50 (vaccinia virus; Orthopoxvirus vaccinia): < 1000 nM
EC50 (La Crosse virus (LACV); La Crosse virus, Vero): < 1000 nM
EC50 (Chlamydophila caviae; Chlamydia caviae, Vero): < 1000 nM

COc1cc(NC(=S)NC(=O)c2ccc(C(C)(C)C)cc2)ccc1NS(=O)(=O)c1cccc2c(N(C)C)cccc12 [Compound 16, 4-tert-butyl-N-[[4-[[5-(dimethylamino)-1-naphthyl]sulfonylamino]-3-methoxy-phenyl]-carbamothioyl]benzamide]
EC50 (vaccinia virus; Orthopoxvirus vaccinia): 1000 to 10000 nM
EC50 (La Crosse virus (LACV); La Crosse virus, Vero): 1000 to 10000 nM
EC50 (Chlamydophila caviae; Chlamydia caviae, Vero): < 1000 nM

CC(C)C(=O)Nc1cccc(NC(=S)NC(=O)c2ccc(C(C)(C)C)cc2)c1 [Compound 57, 4-tert-butyl-N-[[3-(2-methylpropanoylamino)-phenyl]carbamothioyl]-benzamide]
EC50 (vaccinia virus; Orthopoxvirus vaccinia): 1000 to 10000 nM
EC50 (La Crosse virus (LACV); La Crosse virus, Vero): 1000 to 10000 nM
EC50 (Chlamydophila caviae; Chlamydia caviae, Vero): < 1000 nM

CCS/C(=N\C(=O)c1ccc(C(C)(C)C)cc1)Nc1cc(C)ccc1Cl [Compound 9, (NZ)-4-tert-butyl-N-[(2-chloro-5-methyl-anilino)-ethylsulfanyl-methylene]benzamide]
EC50 (vaccinia virus; Orthopoxvirus vaccinia): < 1000 nM
EC50 (La Crosse virus (LACV); La Crosse virus, Vero): < 1000 nM
EC50 (Chlamydophila caviae; Chlamydia caviae, Vero): < 1000 nM

CC(C)(C)c1ccc(C(=O)NC(=S)Nc2ccc(Nc3ccncc3)cc2)cc1 [Compound 38, 4-tert-butyl-N-[[4-(4-pyridylamino)phenyl]-carbamothioyl]benzamide hydrochloride]
EC50 (vaccinia virus; Orthopoxvirus vaccinia): > 25000 nM
EC50 (La Crosse virus (LACV); La Crosse virus, Vero): 1000 to 10000 nM
EC50 (Chlamydophila caviae; Chlamydia caviae, Vero): > 25000 nM

Cc1sc(NC(=S)NC(=O)c2ccc(C(C)(C)C)cc2)c(C#N)c1C [Compound 72, 4-tert-butyl-N-[(3-cyano-4,5-dimethyl-2-thienyl)-carbamothioyl]benzamide]
EC50 (vaccinia virus; Orthopoxvirus vaccinia): 10000 to 25000 nM
EC50 (La Crosse virus (LACV); La Crosse virus, Vero): > 25000 nM
EC50 (Chlamydophila caviae; Chlamydia caviae, Vero): 10000 to 25000 nM

CCS/C(=N\C(=O)c1ccc(C(C)(C)C)cc1)Nc1ccc(NC(=O)c2ccccc2Cl)c(OC)c1 [Compound 10, N-[4-[[(Z)—N-(4-tert-butylbenzoyl)-C-ethylsulfanyl-carbonimidoyl]amino]-2-methoxy-phenyl]-2-chloro-benzamide]
EC50 (vaccinia virus; Orthopoxvirus vaccinia): < 1000 nM
EC50 (La Crosse virus (LACV); La Crosse virus, Vero): < 1000 nM
EC50 (Chlamydophila caviae; Chlamydia caviae, Vero): 1000 to 10000 nM

COc1cccc(NC(=S)NC(=O)c2ccc(C(C)(C)C)cc2)c1 [Compound 66, 4-tert-butyl-N-[(3-methoxyphenyl)-carbamothioyl]benzamide]
EC50 (vaccinia virus; Orthopoxvirus vaccinia): 1000 to 10000 nM
EC50 (La Crosse virus (LACV); La Crosse virus, Vero): > 25000 nM
EC50 (Chlamydophila caviae; Chlamydia caviae, Vero): < 1000 nM

CC(C)(C)c1ccc(C(=O)NC(=S)Nc2ccccc2)cc1 [Compound 53, 4-tert-butyl-N-(phenylcarbamothioyl)-benzamide]
EC50 (vaccinia virus; Orthopoxvirus vaccinia): 1000 to 10000 nM
EC50 (La Crosse virus (LACV); La Crosse virus, Vero): 1000 to 10000 nM
EC50 (Chlamydophila caviae; Chlamydia caviae, Vero): < 1000 nM

COc1cc(NC(=S)NC(=O)c2ccc(C(C)(C)C)cc2)ccc1NC(=O)c1ccccc1N [Compound 28, 2-amino-N-[4-[(4-tert-butylbenzoyl)-carbamothioylamino]-2-methoxy-phenyl]benzamide]
EC50 (vaccinia virus; Orthopoxvirus vaccinia): 1000 to 10000 nM
EC50 (La Crosse virus (LACV); La Crosse virus, Vero): > 25000 nM
EC50 (Chlamydophila caviae; Chlamydia caviae, Vero): < 1000 nM

COc1cc(NC(=S)NC(=O)c2ccc(C(C)(C)C)cc2)ccc1NC(=O)c1cccc(CN)c1 [Compound 27, 3-(aminomethyl)-N-[4-[(4-tert-butylbenzoyl)-carbamothioylamino]-2-methoxy-phenyl]benzamide hydrochloride]
EC50 (vaccinia virus; Orthopoxvirus vaccinia): 1000 to 10000 nM
EC50 (La Crosse virus (LACV); La Crosse virus, Vero): > 25000 nM
EC50 (Chlamydophila caviae; Chlamydia caviae, Vero): < 1000 nM

COc1cc(NC(=S)NC(=O)c2ccc(C(C)(C)C)cc2)ccc1NC(=N)c1ccccc1Cl [Compound 24, 4-tert-butyl-N-[[4-[(2-chlorobenzene-carboximidoyl)amino]-3-methoxy-phenyl]-carbamothioyl]benzamide]
EC50 (vaccinia virus; Orthopoxvirus vaccinia): 1000 to 10000 nM
EC50 (La Crosse virus (LACV); La Crosse virus, Vero): 1000 to 10000 nM
EC50 (Chlamydophila caviae; Chlamydia caviae, Vero): < 1000 nM

COc1cc(NC(=S)NC(=O)c2ccc(C(C)(C)C)cc2)ccc1NC(=O)c1ccc(N)cc1 [Compound 32, N-[[4-[(4-aminobenzoyl)amino]-3-methoxy-phenyl]-carbamothioyl]-4-tert-butyl-benzamide hydrochloride]
EC50 (vaccinia virus; Orthopoxvirus vaccinia): 10000 to 25000 nM
EC50 (La Crosse virus (LACV); La Crosse virus, Vero): 10000 to 25000 nM
EC50 (Chlamydophila caviae; Chlamydia caviae, Vero): < 1000 nM

COc1cc(NC(=S)NC(=O)c2ccc(C(C)(C)C)cc2)ccc1N(C)c1ccccc1Cl [Compound 3, 4-tert-butyl-N-[[4-[(2-chlorophenyl)-methylamino]-3-methoxy-phenyl]-carbamothioyl]-benzamide]
EC50 (vaccinia virus; Orthopoxvirus vaccinia): < 1000 nM
EC50 (La Crosse virus (LACV); La Crosse virus, Vero): < 1000 nM
EC50 (Chlamydophila caviae; Chlamydia caviae, Vero): < 1000 nM

CC(C)(C)c1ccc(C(=O)NC(=S)Nc2ccc(N)cc2Cl)cc1 [Compound 4, N-[(4-amino-2-chloro-phenyl)carbamothioyl]-4-tert-butyl-benzamide hydrochloride]
EC50 (vaccinia virus; Orthopoxvirus vaccinia): < 1000 nM
EC50 (La Crosse virus (LACV); La Crosse virus, Vero): < 1000 nM
EC50 (Chlamydophila caviae; Chlamydia caviae, Vero): < 1000 nM

CC(C)(C)c1ccc(C(=O)NC(=S)Nc2cc(Cl)ccc2Cl)cc1 [Compound 50, 4-tert-butyl-N-[(2,5-dichlorophenyl)-carbamothioyl]benzamide]
EC50 (vaccinia virus; Orthopoxvirus vaccinia): 1000 to 10000 nM
EC50 (La Crosse virus (LACV); La Crosse virus, Vero): 1000 to 10000 nM
EC50 (Chlamydophila caviae; Chlamydia caviae, Vero): < 1000 nM

Cc1cccc(NC(=S)NC(=O)c2ccc(C(C)(C)C)cc2)c1 [Compound 63, 4-tert-butyl-N-(m-tolylcarbamothioyl)-benzamide]
EC50 (vaccinia virus; Orthopoxvirus vaccinia): 1000 to 10000 nM
EC50 (La Crosse virus (LACV); La Crosse virus, Vero): 1000 to 10000 nM
EC50 (Chlamydophila caviae; Chlamydia caviae, Vero): 1000 to 10000 nM

CC(C)(C)c1ccc(C(=O)NC(=S)Nc2cccc(C(F)(F)F)c2Cl)cc1 [Compound 15, 4-tert-butyl-N-[[2-chloro-3-(trifluoromethyl)phenyl]-carbamothioyl]benzamide]
EC50 (vaccinia virus; Orthopoxvirus vaccinia): 1000 to 10000 nM
EC50 (La Crosse virus (LACV); La Crosse virus, Vero): < 1000 nM
EC50 (Chlamydophila caviae; Chlamydia caviae, Vero): < 1000 nM

CCN(C(=S)NC(=O)c1ccc(C(C)(C)C)cc1)c1ccc(NC(=O)c2ccccc2Cl)c(OC)c1 [Compound 34, N-[4-[(4-tert-butylbenzoyl)-carbamothioyl-ethyl-amino]-2-methoxy-phenyl]-2-chloro-benzamide]
EC50 (vaccinia virus; Orthopoxvirus vaccinia): 10000 to 25000 nM
EC50 (La Crosse virus (LACV); La Crosse virus, Vero): > 25000 nM
EC50 (Chlamydophila caviae; Chlamydia caviae, Vero): 1000 to 10000 nM

CCOc1ccccc1NC(=S)NC(=O)c1ccc(C(C)(C)C)cc1 [Compound 56, 4-tert-butyl-N-[(2-ethoxyphenyl)-carbamothioyl]benzamide]
EC50 (vaccinia virus; Orthopoxvirus vaccinia): 1000 to 10000 nM
EC50 (La Crosse virus (LACV); La Crosse virus, Vero): 1000 to 10000 nM
EC50 (Chlamydophila caviae; Chlamydia caviae, Vero): < 1000 nM

Cc1ccc(C)c(NC(=S)NC(=O)c2ccc(C(C)(C)C)cc2)c1 [Compound 67, 4-tert-butyl-N-[(2,5-dimethylphenyl)-carbamothioyl]benzamide]
EC50 (vaccinia virus; Orthopoxvirus vaccinia): 1000 to 10000 nM
EC50 (La Crosse virus (LACV); La Crosse virus, Vero): > 25000 nM
EC50 (Chlamydophila caviae; Chlamydia caviae, Vero): < 1000 nM

CNc1ccc(NC(=S)NC(=O)c2ccc(C(C)(C)C)cc2)c(Cl)c1 [Compound 5, 4-tert-butyl-N-[[2-chloro-4-(methylamino)phenyl]-carbamothioyl]benzamide hydrochloride]
EC50 (vaccinia virus; Orthopoxvirus vaccinia): < 1000 nM
EC50 (La Crosse virus (LACV); La Crosse virus, Vero): < 1000 nM
EC50 (Chlamydophila caviae; Chlamydia caviae, Vero): < 1000 nM
